# Results as given in US20240383856A1 (Zedira GmbH, priority 2021, published 2024).
# Key:
# [1] = logD by shake flask method (octanol / PBS pH 7.4, HPLC); assay type: physicochemical; conditions: octanol / PBS pH 7.4, shake flask
# How it was run: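 Shake-flask partition of compound between octanol and phosphate-buffered saline at pH 7.4, with each phase quantified by HPLC to give LogD.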
# [2] = biological target: T1, recombinant human transglutaminase 2 (Homo sapiens, UniProt P21980); test: Transglutaminase assay (DCC-assay): incorporation of dansylcadaverine into dimethylcasein; assay type: biochemical; conditions: recombinant human TG2 10 nM; dansylcadaverine incorporation into dimethylcasein; read-out: IC50 TG2
# T1 construct: purchased Zedira T022
# T1 sequence (P21980 1-687): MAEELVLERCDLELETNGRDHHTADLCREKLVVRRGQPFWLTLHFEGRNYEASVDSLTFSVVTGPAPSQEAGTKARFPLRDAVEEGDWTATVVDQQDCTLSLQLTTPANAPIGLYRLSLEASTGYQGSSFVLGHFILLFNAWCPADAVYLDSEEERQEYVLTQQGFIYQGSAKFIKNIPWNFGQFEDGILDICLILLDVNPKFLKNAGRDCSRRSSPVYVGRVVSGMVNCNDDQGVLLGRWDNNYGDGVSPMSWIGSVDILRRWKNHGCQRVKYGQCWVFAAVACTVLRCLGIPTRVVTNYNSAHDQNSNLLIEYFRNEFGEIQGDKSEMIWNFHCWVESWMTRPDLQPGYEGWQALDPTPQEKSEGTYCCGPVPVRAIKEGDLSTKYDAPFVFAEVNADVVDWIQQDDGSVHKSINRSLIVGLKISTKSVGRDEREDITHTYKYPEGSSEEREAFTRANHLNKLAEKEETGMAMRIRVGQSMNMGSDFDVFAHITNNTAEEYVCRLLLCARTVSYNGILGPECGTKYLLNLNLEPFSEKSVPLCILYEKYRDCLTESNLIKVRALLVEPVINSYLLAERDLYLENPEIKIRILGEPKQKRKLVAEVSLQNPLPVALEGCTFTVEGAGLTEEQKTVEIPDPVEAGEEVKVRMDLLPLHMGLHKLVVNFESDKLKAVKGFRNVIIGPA
# How it was run: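 Recombinant human TG2 (10 nM final) incorporates dansylcadaverine into N,N-dimethylcasein. Reaction mix: 50 mM Tris-HCl, 10 mM CaCl2, 10 mM glutathione, 2.5% glycerol, 16.7 µM dansylcadaverine, 4 µM dimethylcasein, 200 mM NaCl, pH 8.0. Fluorescence (ex 330/em 500 nm) was followed 30 min at 37 °C; the 20–30 min slope, expressed as % of 2% DMSO control, gave IC50.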
# [3] = Caco-2 permeability assay (CacoReady kit); assay type: in vitro ADME; conditions: human, Caco-2, Caco-2 barrier, CacoReady kit; above 1×10^−6 cm/s classified as permeable
# How it was run: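 Read-out is the permeability coefficient Papp, obtained from transport across a Caco-2 barrier prepared from a ready-to-use kit following the manufacturer's instructions.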
SMILES,logD [1],IC50 [2],Papp [3]
"CNC(=O)C(=O)CC[C@H](NC(=O)C1CN2CCC1CC2)C(=O)Nc1cccn(CC(=O)NC2C3CC4CC(C3)CC2C4)c1=O (stereo partly drawn) [II-61, (S)-N1-(1-(2-(2-adamantylamino)-2-oxoethyl)-2-oxo-1,2-dihydropyridin-3-yl)-N6-methyl-5-oxo-2-(quinuclidine-3-carboxamido)hexanediamide]",1 to 3,40 to 400 nM,< 1 ×10⁻⁶ cm/s
"CNC(=O)C(=O)CC[C@H](NC(=O)c1cc(C(=O)OC)cc([N+](=O)[O-])c1)C(=O)Nc1cccn(CC(=O)NC2C3CC4CC(C3)CC2C4)c1=O (stereo partly drawn) [II-62, (S)-methyl 3-(1-(1-(2-(2-adamantylamino)-2-oxoethyl)-2-oxo-1,2-dihydropyridin-3-ylamino)-6-(methylamino)-1,5,6-trioxohexan-2-ylcarbamoyl)-5-nitrobenzoate]",1 to 3,< 40 nM,1 to 10 ×10⁻⁶ cm/s
"CNC(=O)C(=O)CC[C@H](NC(=O)c1cncc([N+](=O)[O-])c1)C(=O)Nc1cccn(CC(=O)NC2C3CC4CC(C3)CC2C4)c1=O (stereo partly drawn) [II-63, (S)-N1-(1-(2-(2-adamantylamino)-2-oxoethyl)-2-oxo-1,2-dihydropyridin-3-yl)-N6-methyl-2-(5-nitronicotinamido)-5-oxohexanediamide]",1 to 3,< 40 nM,< 1 ×10⁻⁶ cm/s
"CNC(=O)C(=O)CC[C@H](NC(=O)c1cncc(C(=O)OC)c1)C(=O)Nc1cccn(CC(=O)NC2C3CC4CC(C3)CC2C4)c1=O (stereo partly drawn) [II-65, (S)-methyl 5-(1-(1-(2-(2-adamantylamino)-2-oxoethyl)-2-oxo-1,2-dihydropyridin-3-ylamino)-6-(methylamino)-1,5,6-trioxohexan-2-ylcarbamoyl)nicotinate]",1 to 3,40 to 400 nM,< 1 ×10⁻⁶ cm/s
"CNC(=O)C(=O)CC[C@H](NC(=O)c1oc2ccccc2c1C)C(=O)Nc1cccn(CC(=O)N(C)C2C3CC4CC(C3)CC2C4)c1=O (stereo partly drawn) [II-67, (S)-N1-(1-(2-(2-adamantyl(methyl)amino)-2-oxoethyl)-2-oxo-1,2-dihydropyridin-3-yl)-N6-methyl-2-(3-methylbenzofuran-2-carboxamido)-5-oxohexanediamide]",3 to 5,400 to 2500 nM,1 to 10 ×10⁻⁶ cm/s
"CNC(=O)C(=O)CC[C@H](NC(=O)c1oc2ccccc2c1C)C(=O)Nc1cccn(CC(=O)NC2C3CC4CC2CC(O)(C4)C3)c1=O (stereo partly drawn) [II-68, (S)-N1-(1-(2-(5-hydroxyadamantane-2-amino)-2-oxoethyl)-2-oxo-1,2-dihydropyridin-3-yl)-N6-methyl-2-(3-methylbenzofuran-2-carboxamido)-5-oxohexanediamide]",< 1,40 to 400 nM,< 1 ×10⁻⁶ cm/s

# Now from value to molecule:
logD [1],IC50 [2],Papp [3],SMILES
1 to 3,40 to 400 nM,< 1 ×10⁻⁶ cm/s,"CNC(=O)C(=O)CC[C@H](NC(=O)c1cncc(C(=O)O)c1)C(=O)Nc1cccn(CC(=O)NC2C3CC4CC(C3)CC2C4)c1=O (stereo partly drawn) [II-64, (S)-5-(1-(1-(2-(2-adamantylamino)-2-oxoethyl)-2-oxo-1,2-dihydropyridin-3-ylamino)-6-(methylamino)-1,5,6-trioxohexan-2-ylcarbamoyl)nicotinic acid]"
1 to 3,400 to 2500 nM,< 1 ×10⁻⁶ cm/s,"CNC(=O)C(=O)CC[C@H](NC(=O)c1c(C)nc2sccn12)C(=O)Nc1cccn(CC(=O)NC2C3CC4CC(C3)CC2C4)c1=O (stereo partly drawn) [II-66, (S)-N1-(1-(2-(2-adamantylamino)-2-oxoethyl)-2-oxo-1,2-dihydropyridin-3-yl)-N6-methyl-2-(6-methylimidazo[2,1-b]thiazole-5-carboxamido)-5-oxohexanediamide]"
1 to 3,< 40 nM,1 to 10 ×10⁻⁶ cm/s,"CNC(=O)C(=O)CC[C@H](NC(=O)c1oc2ccccc2c1C)C(=O)Nc1cccn(CC(=O)NC2C3CC4CC2CC(F)(C4)C3)c1=O (stereo partly drawn) [II-69, (S)-N1-(1-(2-(5-fluoroadamantane-2-amino)-2-oxoethyl)-2-oxo-1,2-dihydropyridin-3-yl)-N6-methyl-2-(3-methylbenzofuran-2-carboxamido)-5-oxohexanediamide]"
